Where two headings read alike, the source gives them in different places.
System: HCV replicon
Experiment: HCV replicon system in Huh7 cells (Q-RT-PCR of replicon RNA)
Conditions: Hepatitis C virus, Huh-7, 96 h
[1] = read-out: average EC90 value, corrected for cellular toxicity (ΔΔCt vs rDNA/rRNA)

Protocol: Antiviral testing of candidate compounds for Flaviviridae: The HCV replicon system in Huh7 cells.
Add the test compound immediate after seeding the cells and incubate for a period of 3 to 7 days at 37° C. in an incubator. Media is then removed, and the cells are prepared for total nucleic acid extraction (including replicon RNA and host RNA). Replicon RNA can then be amplified in a Q-RT-PCR protocol, and quantified accordingly. […] In such experiments, one way to express the antiviral effectiveness of a compound is to subtract the threshold RT-PCR cycle of the test compound with the average threshold RT-PCR cycle of the negative control. This value is called DeltaCt (ΔCt or DCt). […] As a positive control, recombinant interferon alfa-2a (Roferon-A, Hoffmann-Roche, New Jersey, USA) is taken alongside as positive control.
In a typical setting, a compound might reduce both the host RNA polymerase activity and the replicon-encoded polymerase activity. Therefore, quantification of rRNA (or any other host RNA polymerase I product) or beta-actin mRNA (or any other host RNA polymerase II) and comparison with RNA levels of the no-drug control is a relative measurement of the effect of the test compound on host RNA polymerases.
With the availability of both the HCV ΔCt data and the rRNA ΔCt, a specificity parameter can be introduced. This parameter is obtained by subtracting both ΔCt values from each other.
In another typical setting, a compound might reduce the host RNA polymerase activity, but not the host DNA polymerase activity. Therefore, quantification of rDNA or beta-actin DNA (or any other host DNA fragment) and comparison with DNA levels of the no-drug control is a relative measurement of the inhibitory effect of the test compound on cellular DNA polymerases
With the availability of both the HCV ΔCt data and the rDNA ΔCt, a specificity parameter can be introduced. This parameter is obtained by subtracting both ΔCt values from each other. […] However, compounds with a ΔΔCt value of less than 2, but with limited molecular cytotoxicty (rDNA ΔCT between 0 and 2) may be desired. […]

SMILES | EC90 (read-out: EC90 (1-log reduction of replicon HCV RNA, 3.3 Ct) (converted)) [µM] | EC90 [1] [µM]
Nc1ccn([C@@H]2O[C@H](CO)[C@@H](O)[C@H]2F)c(=O)n1 [2′-Deoxy-2′F-Cytidine, 2′-deoxy-2′-fluorocytidine] | ~5 | ~10
Nc1ccn([C@@H]2O[C@H](CO)[C@@H](O)C2(F)F)c(=O)n1 [Gemcitabine, β-D-2′,2′-difuoro-2′ deoxycytidine, reference compound] |  | ~0.3

From patent publication US20040002476A1, “Modified fluorinated nucleoside analogues” (priority 2002, published 2004)
